Laboratory results as given in US12297194B2, “N2-phenylpyrimidine-2,4-diamine compounds, and preparation methods and methods of use thereof” (BRIDGE BIOTHERAPEUTICS, INC., priority 2021, dated 2025).

Columns and labels:
Type in all cases: cell-based, murine
Ba/F3 EGFR Wild-type = Ba/F3 EGFR Wild-type (Homo sapiens, UniProt P00533); assay: CellTiter-Glo cell viability, Ba/F3 EGFR wild-type cells; settings: 72 hours, read-out: Ba/F3 EGFR mutant cell (IC50, nM) WT
How it was run: (§1)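 EGFR-driven Ba/F3 cells, 2500 per well, exposed 72 h at 37° C to compound (top 2000 nM, ~3-fold steps). Readout: cellular ATP, luminescence; IC50 calculated.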

[1] = biological target: Ba/F3 EGFR L858R/C797S mutants (Homo sapiens, UniProt P00533, C797S/L858R, cells depend on it); assay: CellTiter-Glo cell viability, Ba/F3 EGFR L858R/C797S cells; settings: 72 hours, read-out: Ba/F3 EGFR mutant cell (IC50, nM) L/C
How it was run: as §1

[2] = biological target: Ba/F3 EGFR L858R/T790M/C797S mutants (Homo sapiens, UniProt P00533, T790M/C797S/L858R, cells depend on it); assay: CellTiter-Glo cell viability, Ba/F3 EGFR L858R/T790M/C797S cells; settings: 72 hours, read-out: Ba/F3 EGFR mutant cell (IC50, nM) L/T/C
How it was run: as §1

[3] = biological target: Ba/F3 EGFR Del19/T790M mutants (Homo sapiens, UniProt P00533, T790M, cells depend on it, form not given); assay: CellTiter-Glo cell viability, Ba/F3 EGFR Del19/T790M cells; settings: 72 hours, read-out: Ba/F3 EGFR mutant cell (IC50, nM) D/T
How it was run: as §1

[4] = biological target: Ba/F3 EGFR Del19/C797S mutants (Homo sapiens, UniProt P00533, C797S, cells depend on it, form not given); assay: CellTiter-Glo cell viability, Ba/F3 EGFR Del19/C797S cells; settings: 72 hours, read-out: Ba/F3 EGFR mutant cell (IC50, nM) D/C
How it was run: as §1

[5] = biological target: Ba/F3 EGFR Del19/T790M/C797S mutants (Homo sapiens, UniProt P00533, T790M/C797S, cells depend on it, form not given); assay: CellTiter-Glo cell viability, Ba/F3 EGFR Del19/T790M/C797S cells; settings: 72 hours, read-out: Ba/F3 EGFR mutant cell (IC50, nM) D/T/C
How it was run: as §1

Sequence of Ba/F3 EGFR Del19/T790M mutants (P00533 with tags, fused parts or gaps DEL746-750/T790M, form open): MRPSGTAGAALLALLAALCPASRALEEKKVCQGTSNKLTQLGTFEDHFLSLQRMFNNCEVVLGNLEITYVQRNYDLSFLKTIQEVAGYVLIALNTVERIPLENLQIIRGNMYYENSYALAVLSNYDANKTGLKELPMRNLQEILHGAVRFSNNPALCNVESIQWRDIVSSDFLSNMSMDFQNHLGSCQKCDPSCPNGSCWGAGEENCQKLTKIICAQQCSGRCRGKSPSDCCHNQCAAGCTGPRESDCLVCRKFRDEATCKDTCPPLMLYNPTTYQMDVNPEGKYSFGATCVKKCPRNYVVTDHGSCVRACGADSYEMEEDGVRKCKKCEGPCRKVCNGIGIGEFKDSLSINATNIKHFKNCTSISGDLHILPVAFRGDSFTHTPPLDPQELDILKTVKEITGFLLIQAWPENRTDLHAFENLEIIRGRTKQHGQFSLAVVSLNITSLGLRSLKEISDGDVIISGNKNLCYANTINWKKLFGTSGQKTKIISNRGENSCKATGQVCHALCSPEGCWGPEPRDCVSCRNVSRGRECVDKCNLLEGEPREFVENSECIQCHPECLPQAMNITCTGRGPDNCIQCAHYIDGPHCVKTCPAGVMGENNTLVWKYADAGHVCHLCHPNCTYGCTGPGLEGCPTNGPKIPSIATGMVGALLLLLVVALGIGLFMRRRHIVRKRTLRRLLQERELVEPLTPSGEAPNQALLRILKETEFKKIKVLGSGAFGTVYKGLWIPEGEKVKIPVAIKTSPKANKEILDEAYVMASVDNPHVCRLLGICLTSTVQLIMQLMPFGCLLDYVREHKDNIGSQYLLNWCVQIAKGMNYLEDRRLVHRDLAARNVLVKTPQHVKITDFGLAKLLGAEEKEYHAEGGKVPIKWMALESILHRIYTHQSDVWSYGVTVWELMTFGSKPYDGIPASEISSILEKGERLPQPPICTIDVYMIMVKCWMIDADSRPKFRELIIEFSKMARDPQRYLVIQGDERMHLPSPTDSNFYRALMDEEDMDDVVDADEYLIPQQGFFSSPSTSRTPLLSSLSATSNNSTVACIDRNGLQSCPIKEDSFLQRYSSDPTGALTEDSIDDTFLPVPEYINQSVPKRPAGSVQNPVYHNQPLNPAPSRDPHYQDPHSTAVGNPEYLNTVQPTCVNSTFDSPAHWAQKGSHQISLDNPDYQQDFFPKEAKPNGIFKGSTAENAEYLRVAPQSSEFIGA
Sequence of Ba/F3 EGFR Del19/T790M/C797S mutants (P00533 with tags, fused parts or gaps DEL746-750/T790M/C797S, form open): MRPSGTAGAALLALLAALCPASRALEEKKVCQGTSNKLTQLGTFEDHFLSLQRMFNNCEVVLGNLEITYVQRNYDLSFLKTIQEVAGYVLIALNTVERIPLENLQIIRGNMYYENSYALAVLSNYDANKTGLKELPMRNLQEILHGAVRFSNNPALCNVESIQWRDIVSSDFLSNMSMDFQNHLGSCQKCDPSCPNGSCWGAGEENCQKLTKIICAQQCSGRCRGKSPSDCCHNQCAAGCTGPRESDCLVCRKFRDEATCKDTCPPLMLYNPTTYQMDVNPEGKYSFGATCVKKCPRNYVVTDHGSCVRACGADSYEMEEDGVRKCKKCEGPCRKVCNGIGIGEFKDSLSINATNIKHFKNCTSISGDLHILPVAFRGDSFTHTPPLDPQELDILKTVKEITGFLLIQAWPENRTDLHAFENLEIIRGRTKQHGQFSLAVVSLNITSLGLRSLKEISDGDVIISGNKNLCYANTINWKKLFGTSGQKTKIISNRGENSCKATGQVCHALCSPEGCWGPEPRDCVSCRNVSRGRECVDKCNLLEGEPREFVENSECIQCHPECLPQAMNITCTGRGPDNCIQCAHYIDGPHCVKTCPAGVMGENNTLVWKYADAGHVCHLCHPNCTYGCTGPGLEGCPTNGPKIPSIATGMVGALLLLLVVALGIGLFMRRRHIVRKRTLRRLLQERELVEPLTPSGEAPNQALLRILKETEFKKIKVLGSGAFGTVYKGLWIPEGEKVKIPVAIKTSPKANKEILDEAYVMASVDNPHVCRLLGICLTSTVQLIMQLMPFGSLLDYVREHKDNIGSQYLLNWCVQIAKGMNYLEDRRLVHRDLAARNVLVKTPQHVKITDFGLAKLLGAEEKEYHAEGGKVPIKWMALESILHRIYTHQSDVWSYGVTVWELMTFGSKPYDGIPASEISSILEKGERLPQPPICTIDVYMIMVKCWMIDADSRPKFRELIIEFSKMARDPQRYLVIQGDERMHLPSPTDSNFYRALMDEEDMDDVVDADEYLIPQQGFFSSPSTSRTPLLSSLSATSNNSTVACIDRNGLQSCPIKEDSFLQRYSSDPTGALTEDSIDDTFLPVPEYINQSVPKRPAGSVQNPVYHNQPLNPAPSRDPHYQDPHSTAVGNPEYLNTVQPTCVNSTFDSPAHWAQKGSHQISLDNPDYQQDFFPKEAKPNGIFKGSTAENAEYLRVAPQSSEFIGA
Sequence of Ba/F3 EGFR L858R/T790M/C797S mutants (P00533 whole entry T790M/C797S/L858R): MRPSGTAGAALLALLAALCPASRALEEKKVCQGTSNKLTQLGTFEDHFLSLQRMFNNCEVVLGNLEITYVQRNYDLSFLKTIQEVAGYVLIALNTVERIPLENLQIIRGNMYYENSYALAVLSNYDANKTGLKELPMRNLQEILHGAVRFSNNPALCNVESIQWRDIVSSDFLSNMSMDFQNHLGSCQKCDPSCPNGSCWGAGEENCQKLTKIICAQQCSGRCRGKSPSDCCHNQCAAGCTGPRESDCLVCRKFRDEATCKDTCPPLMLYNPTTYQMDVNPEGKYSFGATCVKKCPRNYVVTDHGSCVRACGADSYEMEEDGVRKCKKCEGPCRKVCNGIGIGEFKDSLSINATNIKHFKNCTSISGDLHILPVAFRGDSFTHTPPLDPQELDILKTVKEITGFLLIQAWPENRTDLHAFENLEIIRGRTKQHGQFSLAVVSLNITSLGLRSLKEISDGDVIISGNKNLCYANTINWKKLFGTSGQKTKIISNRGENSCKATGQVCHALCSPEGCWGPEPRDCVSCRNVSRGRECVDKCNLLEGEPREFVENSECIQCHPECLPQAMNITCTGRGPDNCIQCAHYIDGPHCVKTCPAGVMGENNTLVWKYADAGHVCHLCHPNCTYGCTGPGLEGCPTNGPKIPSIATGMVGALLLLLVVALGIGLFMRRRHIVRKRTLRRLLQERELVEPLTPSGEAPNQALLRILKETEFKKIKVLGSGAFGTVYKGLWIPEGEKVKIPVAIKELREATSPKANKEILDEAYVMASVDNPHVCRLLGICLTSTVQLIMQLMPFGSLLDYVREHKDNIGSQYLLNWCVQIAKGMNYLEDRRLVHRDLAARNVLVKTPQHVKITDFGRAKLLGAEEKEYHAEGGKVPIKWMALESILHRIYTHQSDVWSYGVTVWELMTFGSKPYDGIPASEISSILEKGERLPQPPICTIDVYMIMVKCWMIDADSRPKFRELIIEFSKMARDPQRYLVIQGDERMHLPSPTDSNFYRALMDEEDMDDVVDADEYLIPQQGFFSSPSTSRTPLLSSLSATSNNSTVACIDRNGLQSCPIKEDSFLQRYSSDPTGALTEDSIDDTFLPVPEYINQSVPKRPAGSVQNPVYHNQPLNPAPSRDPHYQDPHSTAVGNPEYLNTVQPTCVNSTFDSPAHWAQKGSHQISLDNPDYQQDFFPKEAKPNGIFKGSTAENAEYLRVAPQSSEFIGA
Sequence of Ba/F3 EGFR Wild-type (P00533 whole entry, change not shown): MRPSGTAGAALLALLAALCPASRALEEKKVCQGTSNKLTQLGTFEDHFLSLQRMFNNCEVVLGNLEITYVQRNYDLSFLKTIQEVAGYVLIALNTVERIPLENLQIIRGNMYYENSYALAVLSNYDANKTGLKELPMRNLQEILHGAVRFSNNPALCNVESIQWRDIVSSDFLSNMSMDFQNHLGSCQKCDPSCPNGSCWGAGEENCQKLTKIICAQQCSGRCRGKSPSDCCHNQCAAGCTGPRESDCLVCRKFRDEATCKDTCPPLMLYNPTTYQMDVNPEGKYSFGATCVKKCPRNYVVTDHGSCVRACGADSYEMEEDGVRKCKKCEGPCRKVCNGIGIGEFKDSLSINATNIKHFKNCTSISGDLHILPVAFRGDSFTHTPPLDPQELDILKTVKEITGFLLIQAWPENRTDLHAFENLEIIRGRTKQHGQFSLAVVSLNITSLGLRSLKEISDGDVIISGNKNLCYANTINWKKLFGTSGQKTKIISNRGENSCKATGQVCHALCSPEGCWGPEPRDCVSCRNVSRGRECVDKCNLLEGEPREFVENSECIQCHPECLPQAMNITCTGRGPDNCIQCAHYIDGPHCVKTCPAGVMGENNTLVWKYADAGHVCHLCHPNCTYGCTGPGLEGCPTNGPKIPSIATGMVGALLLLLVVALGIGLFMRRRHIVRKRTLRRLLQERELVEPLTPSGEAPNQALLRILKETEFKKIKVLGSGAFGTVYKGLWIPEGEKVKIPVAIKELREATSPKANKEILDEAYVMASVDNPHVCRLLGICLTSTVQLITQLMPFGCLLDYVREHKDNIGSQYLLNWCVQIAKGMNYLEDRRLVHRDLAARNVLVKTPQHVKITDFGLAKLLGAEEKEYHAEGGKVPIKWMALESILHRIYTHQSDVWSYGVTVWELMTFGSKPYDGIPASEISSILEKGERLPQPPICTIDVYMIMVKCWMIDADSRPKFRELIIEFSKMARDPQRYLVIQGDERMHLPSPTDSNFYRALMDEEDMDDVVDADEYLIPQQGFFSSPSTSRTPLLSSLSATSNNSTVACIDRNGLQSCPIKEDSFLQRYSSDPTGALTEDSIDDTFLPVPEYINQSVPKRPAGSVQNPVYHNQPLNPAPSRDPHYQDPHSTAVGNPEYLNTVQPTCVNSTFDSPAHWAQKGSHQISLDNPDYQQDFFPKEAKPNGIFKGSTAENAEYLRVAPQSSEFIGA

Row | SMILES | GI50 (Ba/F3 EGFR Wild-type) [nM] | GI50 [1] [nM] | GI50 [2] [nM] | GI50 [3] [nM] | GI50 [4] [nM] | GI50 [5] [nM]
1 | CCc1cc(Nc2ncc(Br)c(Nc3ccc4nccnc4c3NS(C)(=O)=O)n2)c(OC)cc1N1CCC(N2CC3CCC2CN3C)CC1 (stereo not drawn) [Example A46, N-(6-((5-bromo-2-((5-ethyl-2-methoxy-4-(4-(5-methyl-2,5-diazabicyclo[2.2.2]octan-2-yl)piperidin-1-yl)phenyl)amino)pyrimidin-4-yl)amino)quinoxalin-5-yl)methanesulfonamide] | 739 | 113 | 43 | 7 | 12 | 8
2 | CCc1cc(Nc2ncc(Cl)c(Nc3ccc4nccnc4c3NS(C)(=O)=O)n2)c(OC)cc1N1CCC(N2CCOCC2)CC1 [Example A29, N-(6-((5-chloro-2-((5-ethyl-2-methoxy-4-(4-morpholinopiperidin-1-yl)phenyl)amino)pyrimidin-4-yl)amino)quinoxalin-5-yl)methanesulfonamide] | 200 | 79 | 25 | 13 | 27 | 69
3 | COc1cc(N2CCC(N3CCN(C)CC3)CC2)c(C)cc1Nc1ncc(Br)c(Nc2cccc(OC)c2N(C)S(C)(=O)=O)n1 [Example C21, N-(2-((5-bromo-2-((2-methoxy-5-methyl-4-(4-(4-methylpiperazin-1-yl)piperidin-1-yl)phenyl)amino)pyrimidin-4-yl)amino)-6-methoxyphenyl)-N-methylmethanesulfonamide] | 660 | 61 | 49 | 18 | 10 | 13
4 | CCS(=O)(=O)Nc1c(Nc2nc(Nc3cc(C)c(N4CCC(N5CCN(C)CC5)CC4)cc3OC)ncc2Cl)ccc2nccnc12 [Example A25, N-(6-((5-chloro-2-((2-methoxy-5-methyl-4-(4-(4-methylpiperazin-1-yl)piperidin-1-yl)phenyl)amino)pyrimidin-4-yl)amino)quinoxalin-5-yl)ethanesulfonamide] | 373 | 112 | 34 | 18 | 46 | 134
5 | COc1cc(OC2CNC2)ccc1Nc1ncc(Cl)c(Nc2ccc3nccnc3c2NS(C)(=O)=O)n1 [Example D6, N-(6-((2-((4-(azetidin-3-yloxy)-2-methoxyphenyl)amino)-5-chloropyrimidin-4-yl)amino)quinoxalin-5-yl)methanesulfonamide] | > 2000 | 1130 | 1080 | 800 | 706 | 592
6 | COc1cc(C2=CCNCC2)c(C)cc1Nc1ncc(Br)c(Nc2ccc3nccnc3c2NS(C)(=O)=O)n1 [Example D2] | 1430 | 771 | 330 | 342 | 462 | 710
7 | COc1ccc(Nc2nc(Nc3cc(C)c(N4CCC(N5CCN(C)CC5)CC4)cc3OC)ncc2Cl)c(NS(C)(=O)=O)c1 [Example C26, N-(2-((5-chloro-2-((2-methoxy-5-methyl-4-(4-(4-methylpiperazin-1-yl)piperidin-1-yl)phenyl)amino)pyrimidin-4-yl)amino)-5-methoxyphenyl)methanesulfonamide] | 421 | 35 | 54 | 8 | 7 | 5
8 | COc1ccc(Nc2nc(Nc3cc(C)c(N4CCC(N(C)C)CC4)cc3OC)ncc2Cl)c(NS(C)(=O)=O)c1 [Example C4, N-(2-((5-chloro-2-((4-(4-(dimethylamino)piperidin-1-yl)-2-methoxy-5-methylphenyl)amino)pyrimidin-4-yl)amino)-5-methoxyphenyl)methanesulfonamide] | 263 | 91 | 38 | 30 | 31 | 132
9 | CCc1cc(Nc2ncc(Br)c(Nc3ccc4nccnc4c3N(C)S(C)(=O)=O)n2)c(OC)cc1N1CC2(CCN2C(C)C)C1 [Example B31, N-(6-((5-bromo-2-((5-ethyl-4-(1-isopropyl-1,6-diazaspiro[3.3]heptan-6-yl)-2-methoxyphenyl)amino)pyrimidin-4-yl)amino)quinoxalin-5-yl)-N-methylmethanesulfonamide] | 482 | 43 | 43 | 8 | 15 | 6
10 | CCc1cc(Nc2ncc(Cl)c(Nc3ccc4nccnc4c3N(C)S(C)(=O)=O)n2)c(OC)cc1N1CCC(N2CCCC2)CC1 [Example A43, N-(6-((5-chloro-2-((5-ethyl-2-methoxy-4-(4-(pyrrolidin-1-yl)piperidin-1-yl)phenyl)amino)pyrimidin-4-yl)amino)quinoxalin-5-yl)-N-methylmethanesulfonamide] | 507 | 28 | 35 | 8 | 6 | 5
11 | CN[C@@H]1CN(c2ccc(Nc3ncc(Cl)c(Nc4ccc5nccnc5c4NS(C)(=O)=O)n3)c(OC)c2)C[C@H]1F [Example D5] | 1720 | 680 | 1320 | 466 | 595 | 699
12 | COc1ccc(Nc2nc(Nc3cc(C)c(N4CCC(N5CCN(C)CC5)CC4)cc3OC)ncc2Br)c(NS(C)(=O)=O)c1 [Example C2, N-(2-((5-bromo-2-((2-methoxy-5-methyl-4-(4-(4-methylpiperazin-1-yl)piperidin-1-yl)phenyl)amino)pyrimidin-4-yl)amino)-5-methoxyphenyl)methanesulfonamide] | 385 | 32 | 18 | 3 | 13 | 9
13 | CCCc1cc(Nc2ncc(Cl)c(Nc3ccc4nccnc4c3NS(C)(=O)=O)n2)c(OC)cc1N1CCC(N2CCN(C)CC2)CC1 [Example A6, N-(6-((5-chloro-2-((2-methoxy-4-(4-(4-methylpiperazin-1-yl)piperidin-1-yl)-5-propylphenyl)amino)pyrimidin-4-yl)amino)quinoxalin-5-yl)methanesulfonamide] | 498 | 29 | 12 | 5 | 14 | 4
14 | COc1cc(N2CCC(N3CCN(C)CC3)CC2)c(C)cc1Nc1ncc(Br)c(Nc2ccc3nccnc3c2NS(C)(=O)=O)n1 [Example A4, N-(6-((5-bromo-2-((2-methoxy-5-methyl-4-(4-(4-methylpiperazin-1-yl)piperidin-1-yl)phenyl)amino)pyrimidin-4-yl)amino)quinoxalin-5-yl)methanesulfonamide] | 249 | 34 | 6 | 3 | 12 | 1
15 | CCc1cc(Nc2ncc(Cl)c(Nc3ccc4nccnc4c3N(C)S(C)(=O)=O)n2)c(OC)cc1N1CC2CCC1CN2C(C)C (stereo not drawn) [Example B28, N—N-(6-((5-chloro-2-((5-ethyl-4-(5-isopropyl-2,5-diazabicyclo[2.2.2]octan-2-yl)-2-methoxyphenyl)amino)pyrimidin-4-yl)amino)quinoxalin-5-yl)-N-methylmethanesulfonamide] | 332 | 26 | 50 | 23 | 14 | 5
16 | CCCc1cc(Nc2ncc(Cl)c(Nc3ccc4nccnc4c3N(C)S(C)(=O)=O)n2)c(OC)cc1N1CCC(N2CCOCC2)CC1 [Example A41, N-(6-((5-chloro-2-((2-methoxy-4-(4-morpholinopiperidin-1-yl)-5-propylphenyl)amino)pyrimidin-4-yl)amino)quinoxalin-5-yl)-N-methylmethanesulfonamide] | > 2000 | 210 | 258 | 44 | 8 | 28
17 | COc1cc(N2CCC(N3CCCC3)CC2)c(C)cc1Nc1ncc(Cl)c(Nc2ccc3c(c2NS(C)(=O)=O)OCCO3)n1 [Example C27, N-(6-((5-chloro-2-((2-methoxy-5-methyl-4-(4-(pyrrolidin-1-yl)piperidin-1-yl)phenyl)amino)pyrimidin-4-yl)amino)-2,3-dihydrobenzo[b][1,4]dioxin-5-yl)methanesulfonamide] | 565 | 43 | 48 | 16 | 10 | 15
18 | COc1cc(N2CCOCC2)c(C)cc1Nc1ncc(Br)c(Nc2ccc3nccnc3c2S(C)(=O)=O)n1 [Example D1, 5-bromo-N2-(2-methoxy-5-methyl-4-morpholinophenyl)-N4-(5-(methylsulfonyl)quinoxalin-6-yl)pyrimidine-2,4-diamine] | > 2000 | 1120 | 536 | 477 | 1010 | 959
